Where a SMILES comes first, the peptide text is derived from it. [ ]: non-standard residue; d: D form. NMeF = CN[C@@H](Cc1ccccc1)C(=O)O; dNMeF = CN[C@H](Cc1ccccc1)C(=O)O; NMeL = CN[C@@H](CC(C)C)C(=O)O; dNMeL = CN[C@H](CC(C)C)C(=O)O; NMeA = CN[C@@H](C)C(=O)O; dNMeA = CN[C@H](C)C(=O)O; Sar = CNCC(=O)O
Key:
in vitro = conditions: PAMPA, PAMPA_Papp_Avg
[1] = PAMPA

Structure (SMILES) | Papp (in vitro) [×10⁻⁶ cm/s] | PAMPA_R1 [1] | PAMPA_R3 [1]
CC(C)C[C@@H]1NC(=O)[C@@H](CC(C)C)NC(=O)[C@H]2CCCN2C(=O)[C@@H]2CCCN2C(=O)[C@@H](CC(C)C)NC(=O)[C@@H](CC(C)C)N(C)C(=O)[C@@H]2CCCN2C1=O [Design D7.5, LEU PRO *DLEU DLEU PRO DPRO DLEU] (cyclo(LP[dNMeL][dL]P[dP][dL])) | 6.64 | 6.72e-06 cm/s | 
CC(C)C[C@@H]1NC(=O)[C@@H]2CCCN2C(=O)[C@H]2CCCN2C(=O)[C@H](CC(C)C)NC(=O)[C@H](C)N(C)C(=O)[C@H]2CCCN2C(=O)[C@@H](CC(C)C)NC1=O [Design D7.6, DLEU DPRO *ALA LEU DPRO PRO LEU] (cyclo(L[dL][dP][NMeA]L[dP]P)) | 3.62 | 2.16e-06 cm/s | 6.12e-06 cm/s
CC[C@H](C)[C@@H]1NC(=O)[C@H](Cc2ccccc2)N(C)C(=O)[C@H]2CCCN2C(=O)[C@H]([C@@H](C)CC)NC(=O)[C@H](C(C)C)NC(=O)[C@@H](C)NC(=O)[C@H]2CCCN2C1=O [Design D7.9, VAL ILE DPRO *PHE ILE DPRO DALA] (cyclo(I[dP][NMeF]I[dP][dA]V)) | 7.09 | 6.71e-06 cm/s | 6.53e-06 cm/s
CC(C)C[C@@H]1C(=O)N[C@H](CC(C)C)C(=O)N2CCC[C@@H]2C(=O)N2CCC[C@H]2C(=O)N(C)[C@H](CC(C)C)C(=O)N[C@H](CC(C)C)C(=O)N2CCC[C@@H]2C(=O)N2CCC[C@H]2C(=O)N1C [Design D8.4, DPRO PRO *DLEU DLEU DPRO PRO *DLEU DLEU] (cyclo([dNMeL][dL][dP]P[dNMeL][dL][dP]P)) | 0.136 | 1.49E-07 | 1.12E-07
CC(C)C[C@@H]1NC(=O)[C@@H](CC(C)C)N(C)C(=O)[C@@H](CC(C)C)N(C)C(=O)[C@@H](CC(C)C)N(C)C(=O)[C@H](CC(C)C)NC(=O)[C@@H]2CCCN2C(=O)[C@H]2CCCN2C(=O)[C@H](Cc2ccccc2)NC1=O [Design D8.7, PHE DPRO PRO LEU *DLEU *DLEU *DLEU LEU] (cyclo(L[dNMeL][dNMeL][dNMeL]LF[dP]P)) | 1.27 | 1.94E-06 | 8.74E-07
CC[C@H](C)[C@@H]1NC(=O)[C@@H]2CCCN2C(=O)[C@H]2CCCN2C(=O)[C@@H](CC(C)C)NC(=O)[C@@H](CC(C)C)N(C)C(=O)[C@@H]2CCCN2C(=O)[C@H](Cc2ccccc2)N(C)C(=O)[C@@H](Cc2ccccc2)NC1=O [Design D8.14, PRO ILE DPHE*PHE PRO *DLEU DLEU DPRO] (cyclo(I[dF][NMeF]P[dNMeL][dL][dP]P)) | 0.971 | 1.14E-06 | 7.14E-07
CC[C@H](C)[C@@H]1NC(=O)[C@@H]2CCCN2C(=O)CN(C)C(=O)[C@@H](CC(C)C)NC(=O)[C@@H](CC(C)C)N(C)C(=O)[C@@H]2CCCN2C(=O)[C@H](Cc2ccccc2)N(C)C(=O)[C@@H](Cc2ccccc2)NC1=O [Design D8.15, PRO ILE DPHE*PHE PRO *DLEU DLEU *GLY] (cyclo(I[dF][NMeF]P[dNMeL][dL][Sar]P)) | 0.768 | 8.94E-07 | 9.27E-07
CC[C@H](C)[C@@H]1NC(=O)[C@@H](C(C)C)NC(=O)[C@H](CC(C)C)N(C)C(=O)[C@H]2CCCN2C(=O)[C@H]2CCCN2C(=O)[C@H](C(C)C)NC(=O)[C@@H](CC(C)C)NC(=O)[C@H]2CCCN2C1=O [Design D8.16, DPRO DLEU VAL DPRO DPRO *LEU DVAL ILE] (cyclo(I[dP][dL]V[dP][dP][NMeL][dV])) | 2.16 | 2.86E-06 | 1.69E-06
CC[C@H](C)[C@@H]1NC(=O)[C@@H](C)N(C)C(=O)[C@H]2CCCN2C(=O)[C@H]2CCCN2C(=O)[C@H](Cc2ccccc2)NC(=O)[C@@H](CC(C)C)NC(=O)[C@@H](CC(C)C)N(C)C(=O)[C@@H]2CCCN2C1=O [Design D8.17, PRO *DLEU DLEU PHE DPRO DPRO *DALA ILE] (cyclo(F[dP][dP][dNMeA]IP[dNMeL][dL])) | 0.72 | 5.94E-07 | 8.83E-07
CC[C@@H](C)[C@H]1NC(=O)[C@@H]2CCCN2C(=O)[C@@H](CC(C)C)N(C)C(=O)[C@@H](C(C)C)NC(=O)[C@@H]2CCCN2C(=O)[C@@H](CC(C)C)N(C)C(=O)[C@H](C)N(C)C(=O)[C@@H](C)NC1=O [Design D8.18, DILE DALA *ALA *DLEU PRO DVAL *DLEU PRO] (cyclo([NMeA][dNMeL]P[dV][dNMeL]P[dI][dA])) | 1.04 | 1.31E-06 | 9.35E-07
CC(C)C[C@H]1NC(=O)[C@H]2CCCN2C(=O)[C@H](CC(C)C)N(C)C(=O)[C@@H](C)N(C)C(=O)[C@@H](Cc2ccccc2)NC(=O)[C@@H](C(C)C)NC(=O)[C@H]2CCCN2C(=O)[C@@H](CC(C)C)NC1=O [Design D8.19, DPHE *DALA *LEU DPRO DLEU DLEU DPRO DVAL] (cyclo([NMeL][dP][dL][dL][dP][dV][dF][dNMeA])) | 2.88 | 3.45E-06 | 2.33E-06
CC(C)C[C@@H]1C(=O)N(C)[C@H](Cc2ccccc2)C(=O)N(C)[C@@H](CC(C)C)C(=O)N[C@H](C(C)C)C(=O)N[C@H](C)C(=O)N2CCC[C@@H]2C(=O)N2CCC[C@H]2C(=O)N[C@H](C)C(=O)N1C [Design D8.20, PRO DALA *DLEU *DPHE *LEU DVAL DALA DPRO] (cyclo([dA][dNMeL][dNMeF][NMeL][dV][dA][dP]P)) | 1.08 | 1.00E-06 | 1.46E-06
CC(C)C[C@@H]1C(=O)N[C@@H](C(C)C)C(=O)N[C@@H](C)C(=O)N2CCC[C@H]2C(=O)N2CCC[C@@H]2C(=O)N[C@@H](C(C)C)C(=O)N[C@@H](C)C(=O)N(C)[C@@H](CC(C)C)C(=O)N1C [Design D8.22, ALA PRO DPRO VAL ALA *LEU *DLEU VAL] (cyclo(A[NMeL][dNMeL]VAP[dP]V)) | 0.215 | 2.34E-07 | 1.57E-07
CC(C)C[C@@H]1C(=O)N(C)[C@H](CC(C)C)C(=O)N[C@H](CC(C)C)C(=O)N[C@@H](C(C)C)C(=O)N2CCC[C@@H]2C(=O)N2CCC[C@H]2C(=O)N[C@H](CC(C)C)C(=O)N[C@@H](C(C)C)C(=O)N1C [Design D8.23, DLEU VAL *DLEU *DLEU DLEU VAL DPRO PRO] (cyclo([dL]V[dNMeL][dNMeL][dL]V[dP]P)) | 1.28 | 1.18E-06 | 1.40E-06
CC(C)C[C@@H]1C(=O)N[C@H](C)C(=O)N(C)[C@H](CC(C)C)C(=O)N2CCC[C@@H]2C(=O)N[C@H](CC(C)C)C(=O)N[C@@H](C)C(=O)N[C@H](CC(C)C)C(=O)N2CCC[C@@H]2C(=O)N1C [Design D8.25, DLEU DPRO *DLEU DALA *DLEU DPRO DLEU ALA] (cyclo(A[dL][dP][dNMeL][dA][dNMeL][dP][dL])) | 0.824 | 7.42E-07 | 9.32E-07
CC[C@H](C)[C@@H]1NC(=O)[C@H](CC(C)C)N(C)C(=O)[C@H]2CCCN2C(=O)[C@H]2CCCN2C(=O)[C@H](Cc2ccccc2)NC(=O)[C@@H](CC(C)C)NC(=O)[C@H]2CCCN2C(=O)[C@@H]2CCCN2C1=O [Design D8.27, PHE DPRO DPRO *LEU ILE PRO DPRO DLEU] (cyclo(F[dP][dP][NMeL]IP[dP][dL])) | 0.282 | 2.88E-07 | 2.76E-07
CC[C@H](C)[C@@H]1NC(=O)[C@@H](CC(C)C)N(C)C(=O)[C@H](CC(C)C)N(C)C(=O)[C@H](C)NC(=O)[C@H]2CCCN2C(=O)[C@@H]2CCCN2C(=O)[C@@H]2CCCN2C(=O)[C@@H](C(C)C)NC1=O [Design D8.28, PRO DPRO ALA *LEU *DLEU ILE DVAL PRO] (cyclo(A[NMeL][dNMeL]I[dV]PP[dP])) | 1.14 | 1.45E-06 | 7.65E-07
CC(C)C[C@H]1NC(=O)[C@@H]2CCCN2C(=O)[C@@H](C(C)C)NC(=O)[C@@H](C)N(C)C(=O)[C@@H](C(C)C)NC(=O)[C@@H]2CCCN2C(=O)[C@@H](Cc2ccccc2)NC(=O)[C@H](CC(C)C)N(C)C(=O)[C@@H](C(C)C)NC1=O [Design D9.5, PRO DVAL *DALA DVAL PRO DLEU DVAL *LEU DPHE] (cyclo([NMeL][dF]P[dV][dNMeA][dV]P[dL][dV])) | 3.51 | 3.32E-06 | 4.42E-06
CC[C@H](C)[C@@H]1NC(=O)[C@H](Cc2ccccc2)N(C)C(=O)[C@H](CC(C)C)N(C)C(=O)[C@@H](C(C)C)NC(=O)[C@@H](C)NC(=O)[C@@H]2CCCN2C(=O)[C@@H](CC(C)C)NC(=O)[C@@H]2CCCN2C(=O)[C@H](C)NC1=O [Design D9.6, PRO DALA DVAL *LEU *PHE ILE ALA PRO DLEU] | 1.63 | 1.38E-06 | 1.96E-06
CC[C@@H](C)[C@H]1NC(=O)[C@H](CC(C)C)N(C)C(=O)[C@H]2CCCN2C(=O)[C@@H](Cc2ccccc2)N(C)C(=O)[C@@H](Cc2ccccc2)N(C)C(=O)[C@H](CC(C)C)N(C)C(=O)[C@@H](C(C)C)NC(=O)[C@@H]2CCCN2C(=O)[C@H](C)NC1=O [Design D9.9, PRO DVAL *LEU *DPHE *DPHE DPRO *LEU DILE ALA] (cyclo(AP[dV][NMeL][dNMeF][dNMeF][dP][NMeL][dI])) | 0.575 | 7.88E-07 | 2.31E-07
CC[C@H](C)[C@@H]1NC(=O)[C@@H](CC(C)C)N(C)C(=O)[C@H](CC(C)C)N(C)C(=O)[C@@H](C)N(C)C(=O)[C@@H](Cc2ccccc2)NC(=O)[C@H](C(C)C)NC(=O)[C@@H](C)NC(=O)[C@@H]2CCCN2C(=O)[C@H]2CCCN2C1=O [Design D9.10, VAL DPHE *DALA *LEU *DLEU ILE DPRO PRO DALA] (cyclo([dA]V[dF][dNMeA][NMeL][dNMeL]I[dP]P)) | 0.826 | 1.20E-06 | 6.09E-07
CC[C@H](C)[C@@H]1NC(=O)[C@@H](C)N(C)C(=O)[C@@H](C)N(C)C(=O)[C@@H]2CCCN2C(=O)[C@H](CC(C)C)NC(=O)[C@H](CC(C)C)NC(=O)[C@@H](CC(C)C)NC(=O)[C@@H]2CCCN2C(=O)[C@H]2CCCN2C1=O [Design D9.11, PRO DLEU LEU LEU PRO *DALA *DALA ILE DPRO] (cyclo([dL]LLP[dNMeA][dNMeA]I[dP]P)) | 0.223 | 2.61E-07 | 2.10E-07

— PMC9490236, “Accurate de novo design of membrane-traversing macrocycles” (Cell, 2022)
